Tests used:
GSPT1 = target: T1, GSPT1 (Homo sapiens, UniProt P15170+Q96SW2); assay: Immunofluorescence assay for activity to degrade GSPT1 in CAL-51 cells; assay type: cell-based; conditions: 6 h treatment, read-out: IF Class (GSPT1 degradation, DC50)
T1 construct: CAL-51 cells were purchased from DSMZ (cat. Number ACC302); host or cells: CAL-51
Summary of the method: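 CAL-51 cells treated 6 h with compound (30 μM to 0.1 nM), fixed, immunostained for GSPT1 with DAPI and phalloidin counterstains, imaged by high-content microscopy. Mean per-cell GSPT1 intensity normalized to controls; DC50 by non-linear regression.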

CRBN-DDB1 = CRBN-DDB1 (Homo sapiens, UniProt Q96SW2); assay: Compound binding to CRBN by HTRF assay; conditions: CRBN-DDB1 2.5 nM, Cy5-Thalidomide 100 nM, 30 min at ambient temperature; read-out: HTRF Class (Cereblon binding, HTRF IC50)
Summary of the method: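 Cy5-thalidomide (100 nM) displacement from His-tagged CRBN-DDB1 (2.5 nM) read by terbium-cryptate HTRF (665/620 nm), in 20 mM HEPES, 20 mM NaCl, 0.2 mM TCEP, 0.2 mM EDTA, 0.005% Tween20. Compounds tested as 10-point 1:3 series, 30 min at ambient temperature. Signal normalised to DMSO and lenalidomide controls; IC50 fitted, Ki by Cheng-Prusoff.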

T1 sequence (P15170 whole entry): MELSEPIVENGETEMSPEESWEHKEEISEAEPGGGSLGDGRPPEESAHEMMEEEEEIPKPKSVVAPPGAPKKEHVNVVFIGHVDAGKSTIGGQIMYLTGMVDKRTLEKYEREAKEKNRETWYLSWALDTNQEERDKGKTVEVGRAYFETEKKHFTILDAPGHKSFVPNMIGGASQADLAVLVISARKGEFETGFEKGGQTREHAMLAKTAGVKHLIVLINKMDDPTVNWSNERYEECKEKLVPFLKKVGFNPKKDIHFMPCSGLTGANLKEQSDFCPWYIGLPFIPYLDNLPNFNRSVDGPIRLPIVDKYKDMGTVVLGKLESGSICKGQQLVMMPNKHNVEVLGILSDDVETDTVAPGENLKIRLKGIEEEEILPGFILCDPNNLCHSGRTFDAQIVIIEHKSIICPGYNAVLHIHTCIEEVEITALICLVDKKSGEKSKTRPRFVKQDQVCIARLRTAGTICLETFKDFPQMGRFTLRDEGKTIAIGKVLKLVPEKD
T1 sequence (Q96SW2 whole entry): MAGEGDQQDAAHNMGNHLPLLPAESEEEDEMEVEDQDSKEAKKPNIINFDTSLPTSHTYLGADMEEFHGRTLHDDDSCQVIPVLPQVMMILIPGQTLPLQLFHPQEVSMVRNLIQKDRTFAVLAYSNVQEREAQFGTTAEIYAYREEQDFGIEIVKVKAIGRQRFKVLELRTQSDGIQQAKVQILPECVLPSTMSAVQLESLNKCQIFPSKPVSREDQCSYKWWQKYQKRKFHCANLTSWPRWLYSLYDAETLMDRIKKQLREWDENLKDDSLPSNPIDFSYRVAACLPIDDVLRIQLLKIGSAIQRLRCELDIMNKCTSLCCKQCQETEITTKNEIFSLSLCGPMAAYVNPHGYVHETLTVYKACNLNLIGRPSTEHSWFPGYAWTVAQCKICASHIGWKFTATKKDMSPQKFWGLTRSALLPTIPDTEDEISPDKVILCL
T1 sequence (Q16531 2-1140 partner limits assumed): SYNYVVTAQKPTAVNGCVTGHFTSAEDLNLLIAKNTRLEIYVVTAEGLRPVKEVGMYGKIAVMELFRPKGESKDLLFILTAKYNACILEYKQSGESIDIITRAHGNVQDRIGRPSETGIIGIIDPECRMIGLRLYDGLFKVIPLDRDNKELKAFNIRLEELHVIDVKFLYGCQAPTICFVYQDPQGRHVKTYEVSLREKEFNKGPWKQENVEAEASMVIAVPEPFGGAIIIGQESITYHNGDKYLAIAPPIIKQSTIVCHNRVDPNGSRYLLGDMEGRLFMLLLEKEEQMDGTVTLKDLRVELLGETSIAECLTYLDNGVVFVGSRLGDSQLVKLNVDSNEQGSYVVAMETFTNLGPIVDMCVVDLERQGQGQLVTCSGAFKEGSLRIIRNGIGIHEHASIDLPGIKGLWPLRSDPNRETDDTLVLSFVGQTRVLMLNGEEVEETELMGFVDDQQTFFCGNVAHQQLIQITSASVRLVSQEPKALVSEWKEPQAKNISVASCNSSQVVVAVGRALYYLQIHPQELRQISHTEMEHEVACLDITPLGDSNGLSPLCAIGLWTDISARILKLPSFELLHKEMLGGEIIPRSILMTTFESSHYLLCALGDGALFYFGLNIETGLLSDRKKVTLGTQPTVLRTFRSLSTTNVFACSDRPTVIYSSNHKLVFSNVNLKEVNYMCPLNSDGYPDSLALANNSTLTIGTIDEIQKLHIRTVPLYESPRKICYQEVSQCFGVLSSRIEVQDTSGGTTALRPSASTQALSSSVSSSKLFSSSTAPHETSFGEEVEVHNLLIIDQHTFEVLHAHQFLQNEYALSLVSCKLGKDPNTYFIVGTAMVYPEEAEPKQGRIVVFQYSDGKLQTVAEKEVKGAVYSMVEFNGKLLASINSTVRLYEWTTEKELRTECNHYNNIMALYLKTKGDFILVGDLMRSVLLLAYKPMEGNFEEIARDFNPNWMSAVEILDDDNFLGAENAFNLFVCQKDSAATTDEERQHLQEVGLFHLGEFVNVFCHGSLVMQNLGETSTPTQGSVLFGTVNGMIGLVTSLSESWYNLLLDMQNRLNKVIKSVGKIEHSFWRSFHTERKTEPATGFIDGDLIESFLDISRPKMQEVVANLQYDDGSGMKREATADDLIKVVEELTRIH
CRBN-DDB1, sequence (Q96SW2 whole entry): as the sequence (Q96SW2 whole entry) above
CRBN-DDB1, sequence (Q16531 whole entry partner): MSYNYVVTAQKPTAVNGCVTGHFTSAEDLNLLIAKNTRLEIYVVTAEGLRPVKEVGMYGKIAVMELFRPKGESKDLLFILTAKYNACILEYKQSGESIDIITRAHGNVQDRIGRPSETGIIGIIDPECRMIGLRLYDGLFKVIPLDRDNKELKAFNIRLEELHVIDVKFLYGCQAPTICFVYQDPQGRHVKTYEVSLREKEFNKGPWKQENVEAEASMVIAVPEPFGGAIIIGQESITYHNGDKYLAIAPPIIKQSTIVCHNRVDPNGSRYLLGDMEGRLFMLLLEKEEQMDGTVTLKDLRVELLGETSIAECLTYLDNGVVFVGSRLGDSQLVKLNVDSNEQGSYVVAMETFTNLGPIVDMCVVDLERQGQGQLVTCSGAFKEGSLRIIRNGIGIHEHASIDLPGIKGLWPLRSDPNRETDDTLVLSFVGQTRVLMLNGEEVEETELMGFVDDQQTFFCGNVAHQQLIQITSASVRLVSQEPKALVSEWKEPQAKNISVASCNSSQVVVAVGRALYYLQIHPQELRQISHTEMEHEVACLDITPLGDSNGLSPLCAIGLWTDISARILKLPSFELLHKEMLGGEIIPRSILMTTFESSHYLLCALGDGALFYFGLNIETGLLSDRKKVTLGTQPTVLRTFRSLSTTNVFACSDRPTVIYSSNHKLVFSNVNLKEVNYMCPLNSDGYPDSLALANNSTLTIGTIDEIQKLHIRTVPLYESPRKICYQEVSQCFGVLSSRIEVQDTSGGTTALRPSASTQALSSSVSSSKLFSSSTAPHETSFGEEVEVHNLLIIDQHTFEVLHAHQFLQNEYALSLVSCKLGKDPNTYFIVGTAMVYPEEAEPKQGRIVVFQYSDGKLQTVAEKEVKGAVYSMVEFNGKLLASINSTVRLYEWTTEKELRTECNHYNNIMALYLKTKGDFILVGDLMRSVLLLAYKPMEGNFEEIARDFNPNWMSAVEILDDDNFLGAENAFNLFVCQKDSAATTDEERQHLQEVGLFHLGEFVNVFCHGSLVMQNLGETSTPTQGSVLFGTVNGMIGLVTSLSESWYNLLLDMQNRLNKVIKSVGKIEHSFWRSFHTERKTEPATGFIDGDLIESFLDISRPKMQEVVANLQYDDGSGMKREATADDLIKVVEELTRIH

Row | Structure (SMILES) | DC50 (GSPT1) [µM] | IC50 (CRBN-DDB1) [µM]
1 | Cc1ccc(NC(=O)OC2CN(c3ccc(C4CCC(=O)NC4=O)c(Cl)c3F)C2)cc1Cl (stereo not shown) [Compound 54, 1-(3-chloro-4-(2,6-dioxopiperidin-3-yl)-2-fluorophenyl)azetidin-3-yl(3-chloro-4-methylphenyl)carbamate] | 0.03 to 0.3 | > 1
2 | O=C1CCC(c2c(F)cc(N3CC(OC(=O)NC4CCCCCC4)C3)cc2F)C(=O)N1 (stereo not shown) [Compound 134, 1-(4-(2,6-dioxopiperidin-3-yl)-3,5-difluorophenyl)azetidin-3-yl cycloheptylcarbamate] | ≤ 0.03 | ≤ 0.1
3 | O=C1CCC(c2c(F)cc(N3CC(OC(=O)NC45CC(C(F)F)(C4)C5)C3)cc2F)C(=O)N1 (stereo not shown) [Compound 70, 1-(4-(2,6-dioxopiperidin-3-yl)-3,5-difluorophenyl)azetidin-3-yl(3-(difluoromethyl)bicyclo[1.1.1]pentan-1-yl)carbamate] | ≤ 0.03 | 0.1 to 1
4 | O=C1CCC(c2c(F)cc(N3CC(NC(=O)Nc4cccc(OC(F)F)c4)C3)cc2F)C(=O)N1 (stereo not shown) [Compound 15, 1-(3-(difluoromethoxy)phenyl)-3-(1-(4-(2,6-dioxopiperidin-3-yl)-3,5-difluorophenyl)azetidin-3-yl)urea] | 0.03 to 0.3 | ≤ 0.1
5 | Cc1cc(NC(=O)OC2CN(c3cc(F)c(C4CCC(=O)NC4=O)c(F)c3)C2)cc(CN2CC3CC2CO3)c1C (stereo not shown) [Compound 64, 1-(4-(2,6-dioxopiperidin-3-yl)-3,5-difluorophenyl)azetidin-3-yl(3-(2-oxa-5-azabicyclo[2.2.1]heptan-5-ylmethyl)-4,5-dimethylphenyl) carbamate] | ≤ 0.03 | ≤ 0.1
6 | C[C@H]1C[C@@H](NC(=O)OC2CN(c3cc(F)c(C4CCC(=O)NC4=O)c(F)c3)C2)C1 (stereo partly drawn) [Compound 80, 1-(4-(2,6-dioxopiperidin-3-yl)-3,5-difluorophenyl)azetidin-3-yl ((1S,3S)-3-methylcyclobutyl)carbamate] | ≤ 0.03 | ≤ 0.1
7 | O=C1CCC(c2c(F)cc(N3CC(OC(=O)NC4CC4)C3)cc2F)C(=O)N1 (stereo not shown) [Compound 86, 1-(4-(2,6-dioxopiperidin-3-yl)-3,5-difluorophenyl)azetidin-3-yl cyclopropylcarbamate] | > 0.3 | 0.1 to 1
8 | O=C1CCC(c2c(F)cc(N3CC(OC(=O)NC45CC(c6ccccc6)(C4)C5)C3)cc2F)C(=O)N1 (stereo not shown) [Compound 61, 1-(4-(2,6-dioxopiperidin-3-yl)-3,5-difluorophenyl)azetidin-3-yl(3-phenylbicyclo[1.1.1]pentan-1-yl) carbamate] | ≤ 0.03 | 0.1 to 1
9 | Cc1ccc(NC(=O)OC2CN(c3cc(Cl)c(C4CCC(=O)NC4=O)cc3F)C2)cc1Cl (stereo not shown) [Compound 29] | 0.03 to 0.3 | > 1
10 | O=C1CCC(c2c(F)cc(N3CC(NC(=O)Nc4cc(F)cc(OC(F)F)c4)C3)cc2F)C(=O)N1 (stereo not shown) [Compound 22, 1-(3-(difluoromethoxy)-5-fluorophenyl)-3-(1-(4-(2,6-dioxopiperidin-3-yl)-3,5-difluorophenyl)azetidin-3-yl)urea] | 0.03 to 0.3 | 0.1 to 1
11 | CCCCNC(=O)OC1CN(c2cc(F)c(C3CCC(=O)NC3=O)c(F)c2)C1 (stereo not shown) [Compound 131, 1-(4-(2,6-dioxopiperidin-3-yl)-3,5-difluorophenyl)azetidin-3-yl butylcarbamate] | 0.03 to 0.3 | 0.1 to 1
12 | Cc1c(Cl)cc(NC(=O)OC2CN(c3cc(F)c(C4CCC(=O)NC4=O)c(F)c3)C2)cc1C#N (stereo not shown) [Compound 53, 1-(4-(2,6-dioxopiperidin-3-yl)-3,5-difluorophenyl)azetidin-3-yl(3-chloro-5-cyano-4-methylphenyl) carbamate] | 0.03 to 0.3 | 0.1 to 1
13 | O=C1CCC(c2c(F)cc(N3CC(OC(=O)NC45CC(N6CCCCC6)(C4)C5)C3)cc2F)C(=O)N1 (stereo not shown) [Compound 65, 1-(4-(2,6-dioxopiperidin-3-yl)-3,5-difluorophenyl)azetidin-3-yl (3-(piperidin-1-yl)bicyclo[1.1.1]pentan-1-yl) carbamate] | ≤ 0.03 | ≤ 0.1
14 | C[C@H]1CC[C@H](NC(=O)OC2CN(c3cc(F)c(C4CCC(=O)NC4=O)c(F)c3)C2)CC1 (stereo partly drawn) [Compound 124, 1-(4-(2,6-dioxopiperidin-3-yl)-3,5-difluorophenyl)azetidin-3-yl((1R,4R)-4-methylcyclohexyl) carbamate] | ≤ 0.03 | ≤ 0.1
15 | CC1(c2ccc(NC(=O)NC3CN(c4cc(F)c(C5CCC(=O)NC5=O)c(F)c4)C3)cn2)CC1 (stereo not shown) [Compound 40, 1-(1-(4-(2,6-dioxopiperidin-3-yl)-3,5-difluorophenyl)azetidin-3-yl)-3-(6-(1-methylcyclopropyl)pyridin-3-yl)urea] | ≤ 0.03 | 0.1 to 1
16 | O=C1CCC(c2c(F)cc(N3CC(OC(=O)Nc4cc(F)cc(Cl)c4)C3)cc2F)C(=O)N1 (stereo not shown) [Compound 34, 1-(4-(2,6-dioxopiperidin-3-yl)-3,5-difluorophenyl)azetidin-3-yl(3-chloro-5-fluorophenyl)carbamate] | 0.03 to 0.3 | 0.1 to 1
17 | O=C1CCC(c2c(F)cc(N3CC(OC(=O)Nc4cc(F)cc(OC(F)F)c4)C3)cc2F)C(=O)N1 (stereo not shown) [Compound 44, 1-(4-(2,6-dioxopiperidin-3-yl)-3,5-difluorophenyl)azetidin-3-yl (3-(difluoromethoxy)-5-fluorophenyl)carbamate] | 0.03 to 0.3 | 0.1 to 1
18 | O=C1CCC(c2c(F)cc(N3CC(OC(=O)N[C@@H]4CCOC4)C3)cc2F)C(=O)N1 (stereo partly drawn) [Compound 83, 1-(4-(2,6-dioxopiperidin-3-yl)-3,5-difluorophenyl)azetidin-3-yl ((R)-tetrahydrofuran-3-yl)carbamate] | > 0.3 | 0.1 to 1
19 | CC1(C)CC(NC(=O)OC2CN(c3cc(F)c(C4CCC(=O)NC4=O)c(F)c3)C2)C1 (stereo not shown) [Compound 97, 1-(4-(2,6-dioxopiperidin-3-yl)-3,5-difluorophenyl)azetidin-3-yl (3,3-dimethylcyclobutyl)carbamate] | ≤ 0.03 | ≤ 0.1
20 | O=C1CCC(c2c(F)cc(N3CC(OC(=O)NCC4CCC4)C3)cc2F)C(=O)N1 (stereo not shown) [Compound 91, 1-(4-(2,6-dioxopiperidin-3-yl)-3,5-difluorophenyl)azetidin-3-yl (cyclobutylmethyl)carbamate] | 0.03 to 0.3 | 0.1 to 1
21 | O=C1CCC(c2c(F)cc(N3CC(OC(=O)Nc4cccc(OC5CC5)c4)C3)cc2F)C(=O)N1 (stereo not shown) [Compound 37, 1-(4-(2,6-dioxopiperidin-3-yl)-3,5-difluorophenyl)azetidin-3-yl (3-cyclopropoxyphenyl)carbamate] | ≤ 0.03 | 0.1 to 1
22 | Cc1cc(NC(=O)OC2CN(c3cc(F)c(C4CCC(=O)NC4=O)c(F)c3)C2)cc(C)c1C#N (stereo not shown) [Compound 48, 1-(4-(2,6-dioxopiperidin-3-yl)-3,5-difluorophenyl)azetidin-3-yl (4-cyano-3,5-dimethylphenyl) carbamate] | ≤ 0.03 | 0.1 to 1
23 | CC1(c2ccc(NC(=O)NC3CN(c4cc(F)c(C5CCC(=O)NC5=O)c(F)c4)C3)cc2)CC1 (stereo not shown) [Compound 60, 1-(1-(4-(2,6-dioxopiperidin-3-yl)-3,5-difluorophenyl)azetidin-3-yl)-3-(4-(1-methylcyclopropyl)phenyl)urea] | ≤ 0.03 | 0.1 to 1

— patent publication US20240308976A1, “COMPOUNDS THAT MEDIATE PROTEIN DEGRADATION AND USES THEREOF” (Monte Rosa Therapeutics, Inc., priority 2021, published 2024)
